Key:
[1] = test system: HIF-1; experiment: HIF-1 protein levels in cell lysates by ELISA; assay type: cell-based, rat; conditions: 100 μM, 18 h, 21% O2; reaches level similar to cells at 1% oxygen
Procedure: (§1) Cell culture: Rat aortic endothelial cells (RAECs) were seeded into 24-well plates and cultured until ˜80% confluent after which they were incubated with or without DMOG for 18 h at normal oxygen levels (21% O2). Cells incubated at 1% O2 where used as a positive control for HIF-1.
Enzyme linked immunosorbent assay (ELISA): HIF-1 protein levels were measured using ELISA. Treated cells were lysed in 80 μL lysis buffer (25 mmol/L Tris HCl pH 7. 6, 0.1% SDS, deoxycholate, 1% NP40, 0.5 mol/L EDTA, 40 mmol/L EGTA and protease inhibitors). Lysates were then centrifuged at 11,000 g for 15 min at 4° C. and the supernatant was collected. Protein concentrations were quantified using a BCA reagent kit (Pierce Biotechnology). HIF was measured using an ELISA kit (R&D systems and biotechne, UK) and expressed as pg/mg protein.
Similar to the methods described in example 2, HIF-1 protein expression and VEGF gene expression were quantitatively measured in vitro using ELISA and real time qPCR respectively using different the different HIF-1 inducers at different concentrations (0-500 uM).

[2] = test system: vascular endothelial growth factor (VEGF); experiment: VEGF gene expression by real time qPCR in RAECs; assay type: cell-based, rat; conditions: 100 μM, 18 h, 21% O2; reaches level similar to cells at 1% oxygen
Procedure: as §1
Real time qPCR: The gene expression of vascular endothelial growth factor (VEGF), a HIF-1 target gene, was analysed by quantitative polymerase chain reaction (qPCR). Cells were lysed using TRIzol (Invitrogen, Life Technologies) and RNA was then extracted and purified. RNA quality and concentration were determined using a NanoDrop ND-1000 (NanoDrop Technologies). Reverse transcription and real-time quantitative PCR (qPCR) were carried out on RNA samples for VEGF and β2-microglobulin (a housekeeping gene not affected by change in oxygen levels), using TaqMan gene expression assays (Applied Biosystems/Life Technologies). For gene expression quantification, the comparative threshold cycle (ΔΔCT) method was used following manufacturer's guide-lines. Results were normalized to β2-microglobulin expression and expressed as arbitrary units using one of the normoxic untreated samples as a calibrator. […]

[3] = test system: HIF-1; experiment: HIF-1 in plasma by ELISA after local application on carotid artery; assay type: in vivo, Sprague Dawley rats; conditions: 24 h
Procedure: (§2) Male animal study: Sprague Dawley rats (450 g) were used in this study. Animals were anesthetized using 2% isoflurane where the rats were placed in a supine position. The right carotid artery was exposed and DMOG was applied locally at different concentrations (0-7.5 mg/Kg) on the artery using pluronic gel (30% w/w). 3 rats were used in each concentration group.
ELISA: After 24 h, blood was taken from the rat's tail in tubes containing EDTA as an anti-coagulant. Blood was kept on ice and centrifuged to separate the plasma which was immediately treated with a protease inhibitor. HIF-1 was quantified in the collected plasma using the ELISA assay as described in example 2. After 24 h, treated animals were culled and both the right (treated) and left (untreated) carotid arteries were isolated and snap frozen for further analysis.

[4] = test system: vascular endothelial growth factor (VEGF); experiment: VEGF gene expression in carotid artery by qPCR after local application; assay type: in vivo, Sprague Dawley rats; conditions: 24 h
Procedure: as §2
Real time qPCR: RNA was extracted and purified from the frozen artery sections using TRIzol (Invitrogen, Life Technologies). RNA quality and concentrations were determined using a NanoDrop ND-1000 (NanoDrop Technologies). Reverse transcription and real-time quantitative PCR (qPCR) were carried out on RNA samples for VEGF and β2-microglobulin as described in example 2.

[5] = test system: HIF-1; experiment: HIF-1 in plasma by ELISA post balloon injury; assay type: in vivo, Sprague Dawley rats; conditions: DMOG 5 mg/Kg local hydrogel, 24 h post injury
Text: (§3) Angioplasty model: Balloon catheter injury (angioplasty) was the model used as an in vivo injury model using Sprague Dawley rats (450 g). Animals were anesthetized using 2% isoflurane where the rats were placed in a supine position. The right carotid artery was exposed and a (2F Fogarty catheter) was used to cause injury. The catheter was inserted into the common carotid artery via the external carotid to cause complete removal of the vascular endothelium from the common carotid artery down to its junction with the aortic arch. DMOG (5 mg/Kg) and EPO (100 ug/Kg) were administered either alone or in combination in the form of a hydrogel (30% w/v pluronic F127 gel) and applied to the artery after injury. Endothelial regrowth was then assessed using Evan's blue staining (injected IV in the tail vein 30 min before culling the animal) 0 and 5 days after injury to assess the area of de-endothelialised surface; re-endothelialised regions remain unstained. Images of stained arteries were quantified using Image J software.
ELISA: Blood was collected from venous tail at 0, 1 and 5 days post injury. Plasma was separated and used for quantitative measurement of HIF-1 using ELISA method as described earlier.

[6] = test system: human keratinocytes (HaCaT); experiment: Scratch assay, skin injury model, keratinocytes; assay type: cell-based; conditions: agent alone (DMOG 100 μM or EPO 1 ng/ml), 3% serum, 21% oxygen, vs untreated cells
Procedure: (§4) An in vitro injury model using cells relevant to wound injury were used. Two different cell lines; human keratinocytes (HaCaT) and human fibroblasts were used as skin injury models.
(§5) Scratch assay: As described in example 3, the reparative effect of EPO (1 ng/mL) and DMOG (100 uM) were tested alone or in combination on HaCaT and fibroblasts incubated in cell culture medium (Dulbeccos cell culture medium) containing 3% serum in 21% oxygen for 24 h.

[7] = test system: rat aortic endothelial cells (RAECs); experiment: Proliferation assay, endothelial cells; assay type: cell-based; conditions: 24 h; for proliferation of rat aortic endothelial cells: 100 μM (0.1 mM); for optimum concentration for enhancing proliferation of rat aortic endothelial cells: tested 0-200 μM
Procedure: (§6) Proliferation assay: Proliferation of rat aortic endothelial cells (RAECs) and rat aortic smooth muscle cells (isolated from rats at animal unit at Sussex University) was evaluated using Trypan Blue exclusion test. Cells were seeded in 96 well plates at a seeding density of 1×10^4 cells/mL (0.15 mL/well). After 24 h, cells where treated with or without different concentrations of 2 HIF-1 inducers; DMOG and BIQ (0-200 μM). After another 24 hours, Trypan Blue was added and the cells that were stained (dead) and unstained (live) were counted. Results were expressed as number of cells/mL.

[8] = test system: human fibroblasts; experiment: Scratch assay, skin injury model, fibroblasts; assay type: cell-based; conditions: agent alone (DMOG 100 μM or EPO 1 ng/ml), 3% serum, 21% oxygen, vs untreated cells
Procedure: as §4, §5

[9] = test system: rat carotid artery; experiment: Balloon catheter injury (angioplasty) model, endothelial regrowth by Evan's blue staining; assay type: in vivo, Sprague Dawley rats; conditions: DMOG 5 mg/Kg alone, local hydrogel, 5 days after injury
Text: as §3

[10] = test system: rat aortic smooth muscle cells; experiment: Proliferation assay, smooth muscle cells; assay type: cell-based; conditions: 0-200 μM, 24 h
Procedure: as §6

[11] = test system: rat aortic endothelial cells (RAECs); experiment: Scratch assay (in vitro injury model), wound closure; assay type: cell-based; conditions: HIF-1 inducer 100 μM alone, 21% oxygen, 5% serum, vs untreated cells
Procedure: Scratch assay: This assay was used as an in vitro model of injury in rat aortic endothelial cells (RAECs). The effect of EPO on wound closure was investigated in either 21% or 1% O2. A reproducible scratch was produced in the endothelial monolayer and thereafter, either EPO (1 ng/mL) or saline (control) was added to the cells (in rat endothelial growth medium containing 5% serum) and subsequently incubated in 21% or 1% O2 for 24 hours. The defined area of the scratch was photographed under an inverted microscope (Olympus CKX41; Olympus Corporation, Tokyo, Japan) at lox magnification using a Micropix 5 megapixel colour complementary metal-oxide semiconductor digital camera (Olympus Cooperation). The position of the wound image was standardized each time against a horizontal line drawn on the base of the plate passing through the centre of each well. The scratch area was quantified using ImageJ software (National institutes of Health, Bethesda, Md., USA).
Scratch assay: Scratch assay was used as described in example 1. Cells where treated with DMOG (100 μM) and/or EPO (at 1 ng/mL). Cells incubated with medium containing 10% serum where used as positive control to reflect the maximum wound closure the cells could attain after 24 h. […]

[12] = 0-7.5 mg/Kg applied locally on carotid artery in pluronic gel
[13] = local application on carotid artery

SMILES	HIF levels in cell lysates [1]	gene expression of VEGF [2]	HIF levels in plasma [3, 12]	optimal dose to cause an increase in HIF-1 [3, 13] [mg/kg]	gene expression of VEGF in carotid artery [4, 12]	optimal dose to cause an increase in VEGF [4, 13] [mg/kg]	HIF-1 levels in rat plasma [5]	% wound closure after 24 h [6]	proliferation of rat aortic endothelial cells [7]	optimum concentration for enhancing proliferation of rat aortic endothelial cells [7] [µM]	% wound closure after 24 h [8]	repair of the endothelial lining of rat carotid artery [9]	proliferation of smooth muscle cells [10]	% wound closure after 24 h [11]
COC(=O)CNC(=O)C(=O)OC [DMOG, dimethyloxalylglycine]	increase	increase	concentration dependent effect	5	concentration dependent effect	5	significantly increased	no significant different	enhanced	100	no significant different	significant effect	no effect	
O=C(O)CNC(=O)c1c(O)c2ccccc2n(Cc2ccccc2)c1=O [IOX, N-[[1,2-Dihydro-4-hydroxy-2-oxo-1-(phenylmethyl)-3-quinolinyl]carbonyl]glycine]														no change
O=C(O)CNC(=O)c1nc(Cl)c2ccccc2c1O [BIQ, N-[(1-Chloro-4-hydroxy-3-isoquinolinyl)carbonyl]glycine]									enhanced	100			no effect	
